{
  "source": "patent US11352371B2",
  "about": "“Thienopyrimidine derivatives as ACC inhibitors and uses thereof” (Gilead Sciences, Inc., priority 2019, dated 2022)",
  "system": "HepG2 cells",
  "test": "In vitro De Novo Lipogenesis (DNL) assay, 13C-acetate incorporation into palmitic acid",
  "assay_type": "cell-based",
  "settings": "1 hour preincubation, 24 hours with 10 mM 13C-labeled acetate",
  "procedure": "De Novo Lipogenesis (DNL) was measured in vitro in HepG2 cells by quantifying the incorporation of ^13C-labeled acetate into palmitic acid.\nHepG2 cells were plated in growth medium (DMEM (Corning cat #15-018-CM) supplemented with 10% FBS (HyClone cat #SH30071-03), and 1× penicillin, streptomycin, glutamine (Corning cat #30-009-CI)) at 10,000 cells/well in a 384-well cell culture-treated plate (Greiner cat #781091). The cells were then incubated overnight at 37° C., 5% CO2. The next day, the cells were washed twice with sterile DPBS (Corning cat #21-031-CM) and the culture medium was changed to fresh growth medium. The compounds of interest were dosed to cells, followed by a 1 hour incubation at 37° C., 5% CO2. ^13C-labeled acetate (Sigma-Aldrich cat #279315-1G) was added to the culture medium at a concentration of 10 mM and the cells were incubated for 24 hours at 37° C., 5% CO2.\nIn order to analyze the lipid content of the HepG2 cells, the culture medium was removed and the cells were lysed by adding 30 μL of 0.1 M NaOH. After 5 minutes of incubation at room temperature, 15 μL of cell lysate was transferred to a 384-well deep-well plate (Sigma-Aldrich cat #BR701355-48EA) containing 15 μL of 7.3% KOH in ethanol and mixed. This plate was sealed and incubated at 70° C. for 4 hours to hydrolyze the lipids to free fatty acids. 100 μL of acetonitrile was then added and the plate was spun at 3,700 g for 20 minutes to separate the organic and aqueous phases. 50 μL from the top (organic) phase was transferred to a new 384-well plate (NUNC cat #264573) and the samples were analyzed by mass spectrometry using a RapidFire coupled to a QTOF mass spectrometer. The sum of the area under curve (AUC) for palmitate containing 3 to 7 ^13C was normalized with the AUC of oleate and plotted against compound concentration to determine the potency of ACC inhibitors. […]",
  "data": [
    {"compound": "2-(1-((R)-2-(((1R,3s,5S)-8-oxabicyclo[3.2.1]octan-3-yl)oxy)-2-(2-methoxyphenyl)ethyl)-5-methyl-6-(oxazol-2-yl)-2,4-dioxo-1,4-dihydrothieno[2,3-d]pyrimidin-3 (2H)-yl)-N-(tert-butylsulfonyl)-2-methylpropanamide [Example 3]", "values": [
      {"measurement": "EC50", "result": 1.5, "unit": "nM"}
    ]},
    {"compound": "COc1ccccc1[C@H](Cn1c(=O)n(C(C)(C)C(=O)NS(=O)(=O)C2(C(F)F)CC2)c(=O)c2c(C)c(-c3ncco3)sc21)O[C@@H]1C[C@H]2CC[C@@H](C1)O2", "note": "[Example 2, 2-(1-((R)-2-(((1R,3s,5S)-8-oxabicyclo[3.2.1]octan-3-yl)oxy)-2-(2-methoxyphenyl)ethyl)-5-methyl-6-(oxazol-2-yl)-2,4-dioxo-1,4-dihydrothieno[2,3-d]pyrimidin-3(2H)-yl)-N-((1-(difluoromethyl)cyclopropyl)sulfonyl)-2-methylpropanamide]", "values": [
      {"measurement": "EC50", "setting": "Homo sapiens", "result": 5.9, "unit": "nM"}
    ]},
    {"compound": "COc1ccccc1[C@H](Cn1c(=O)n(C(C)(C)C(=O)NS(=O)(=O)C2CC2)c(=O)c2c(C)c(-c3ncco3)sc21)O[C@@H]1C[C@H]2CC[C@@H](C1)O2", "note": "[Example 4, 2-(1-((R)-2-(((1R,3s,5S)-8-oxabicyclo[3.2.1]octan-3-yl)oxy)-2-(2-methoxyphenyl)ethyl)-5-methyl-6-(oxazol-2-yl)-2,4-dioxo-1,4-dihydrothieno[2,3-d]pyrimidin-3 (2H)-yl)-N-(cyclopropylsulfonyl)-2-methylpropanamide]", "values": [
      {"measurement": "EC50", "result": 1.7, "unit": "nM"}
    ]},
    {"compound": "COc1ccc(F)cc1[C@H](Cn1c(=O)n(C(C)(C)C(=O)NS(=O)(=O)C2(C)CC2)c(=O)c2c(C)c(-c3ncco3)sc21)O[C@@H]1C[C@H]2CC[C@@H](C1)O2", "note": "[Example 5, 2-(1-((R)-2-(((1R,3s,5S)-8-oxabicyclo[3.2.1]octan-3-yl)oxy)-2-(5-fluoro-2-methoxyphenyl)ethyl)-5-methyl-6-(oxazol-2-yl)-2,4-dioxo-1,4-dihydrothieno[2,3-d]pyrimidin-3(2H)-yl)-2-methyl-N-((1-methylcyclopropyl)sulfonyl)propanamide]", "values": [
      {"measurement": "EC50", "setting": "Homo sapiens", "result": 2.9, "unit": "nM"}
    ]},
    {"compound": "Cc1c(-c2ncco2)sc2c1c(=O)n(C(C)(C)C(=O)NS(=O)(=O)C1CC1)c(=O)n2C[C@H](O[C@@H]1C[C@H]2CC[C@@H](C1)O2)c1cc(F)ccc1OC(F)F", "note": "[Example 7, 2-(1-((R)-2-(((1R,3s,5S)-8-oxabicyclo[3.2.1]octan-3-yl)oxy)-2-(2-(difluoromethoxy)-5-fluorophenyl)ethyl)-5-methyl-6-(oxazol-2-yl)-2,4-dioxo-1,4-dihydrothieno[2,3-d]pyrimidin-3(2H)-yl)-N-(cyclopropylsulfonyl)-2-methylpropanamide]", "values": [
      {"measurement": "EC50", "setting": "Homo sapiens", "result": 7.6, "unit": "nM"}
    ]},
    {"compound": "Cc1c(-c2ncco2)sc2c1c(=O)n(C(C)(C)C(=O)NS(=O)(=O)C(C)(C)C)c(=O)n2C[C@H](O[C@@H]1C[C@H]2CC[C@@H](C1)O2)c1cc(F)ccc1OC(F)F", "note": "[Example 8, 2-(1-((R)-2-(((1R,3s,5S)-8-oxabicyclo[3.2.1]octan-3-yl)oxy)-2-(2-(difluoromethoxy)-5-fluorophenyl)ethyl)-5-methyl-6-(oxazol-2-yl)-2,4-dioxo-1,4-dihydrothieno[2,3-d]pyrimidin-3(2H)-yl)-N-(tert-butylsulfonyl)-2-methylpropanamide]", "values": [
      {"measurement": "EC50", "setting": "Homo sapiens", "result": 7, "unit": "nM"}
    ]},
    {"compound": "Cc1c(-c2ncco2)sc2c1c(=O)n(C(C)(C)C(=O)NS(=O)(=O)c1ccccn1)c(=O)n2C[C@H](O[C@@H]1C[C@H]2CC[C@@H](C1)O2)c1cc(F)ccc1OC(F)F", "note": "[Example 9, 2-(1-((R)-2-(((1R,3s,5S)-8-oxabicyclo[3.2.1]octan-3-yl)oxy)-2-(2-(difluoromethoxy)-5-fluorophenyl)ethyl)-5-methyl-6-(oxazol-2-yl)-2,4-dioxo-1,4-dihydrothieno[2,3-d]pyrimidin-3(2H)-yl)-2-methyl-N-(pyridin-2-ylsulfonyl)propanamide]", "values": [
      {"measurement": "EC50", "setting": "Homo sapiens", "result": 215, "unit": "nM"}
    ]},
    {"compound": "Cc1c(-c2ncco2)sc2c1c(=O)n(C1(C(=O)NS(=O)(=O)C3(C)CC3)CC1)c(=O)n2C[C@H](O[C@@H]1C[C@H]2CC[C@@H](C1)O2)c1cc(F)ccc1OC(F)F", "note": "[Example 10, 1-(1-((R)-2-(((1R,3s,5S)-8-oxabicyclo[3.2.1]octan-3-yl)oxy)-2-(2-(difluoromethoxy)-5-fluorophenyl)ethyl)-5-methyl-6-(oxazol-2-yl)-2,4-dioxo-1,4-dihydrothieno[2,3-d]pyrimidin-3(2H)-yl)-N-((1-methylcyclopropyl)sulfonyl)cyclopropane-1-carboxamide]", "values": [
      {"measurement": "EC50", "setting": "Homo sapiens", "result": 48.3, "unit": "nM"}
    ]},
    {"compound": "Cc1c(-c2ncco2)sc2c1c(=O)n(C1(C(=O)NS(=O)(=O)C(C)(C)C)CC1)c(=O)n2C[C@H](O[C@@H]1C[C@H]2CC[C@@H](C1)O2)c1cc(F)ccc1OC(F)F", "note": "[Example 11, 1-(1-((R)-2-(((1R,3s,5S)-8-oxabicyclo[3.2.1]octan-3-yl)oxy)-2-(2-(difluoromethoxy)-5-fluorophenyl)ethyl)-5-methyl-6-(oxazol-2-yl)-2,4-dioxo-1,4-dihydrothieno[2,3-d]pyrimidin-3(2H)-yl)-N-(tert-butylsulfonyl)cyclopropane-1-carboxamide]", "values": [
      {"measurement": "EC50", "setting": "Homo sapiens", "result": 66.2, "unit": "nM"}
    ]},
    {"compound": "Cc1c(-c2ncco2)sc2c1c(=O)n(C1(C(=O)NS(=O)(=O)C(C)(C)C)CC1)c(=O)n2C[C@H](O[C@@H]1C[C@H]2CC[C@@H](C1)O2)c1ccccc1OC(F)F", "note": "[Example 13, 1-(1-((R)-2-(((1R,3s,5S)-8-oxabicyclo[3.2.1]octan-3-yl)oxy)-2-(2-(difluoromethoxy)phenyl)ethyl)-5-methyl-6-(oxazol-2-yl)-2,4-dioxo-1,4-dihydrothieno[2,3-d]pyrimidin-3(2H)-yl)-N-(tert-butylsulfonyl)cyclopropane-1-carboxamide]", "values": [
      {"measurement": "EC50", "setting": "Homo sapiens", "result": 882, "unit": "nM"}
    ]},
    {"compound": "Cc1c(-c2ncco2)sc2c1c(=O)n(C1(C(=O)NS(=O)(=O)C3(C)CC3)CC1)c(=O)n2C[C@H](O[C@@H]1C[C@H]2CC[C@@H](C1)O2)c1ccccc1OC(F)F", "note": "[Example 14, 1-(1-((R)-2-(((1R,3s,5S)-8-oxabicyclo[3.2.1]octan-3-yl)oxy)-2-(2-(difluoromethoxy)phenyl)ethyl)-5-methyl-6-(oxazol-2-yl)-2,4-dioxo-1,4-dihydrothieno[2,3-d]pyrimidin-3(2H)-yl)-N-((1-methylcyclopropyl)sulfonyl)cyclopropane-1-carboxamide]", "values": [
      {"measurement": "EC50", "setting": "Homo sapiens", "result": 29.8, "unit": "nM"}
    ]},
    {"compound": "Cc1c(-c2ncco2)sc2c1c(=O)n([C@@H](C)C(=O)NS(=O)(=O)C1(C)CC1)c(=O)n2C[C@H](O[C@@H]1C[C@H]2CC[C@@H](C1)O2)c1cc(F)ccc1OC(F)F", "note": "[Example 15, (S)-2-(1-((R)-2-(((1R,3s,5S)-8-oxabicyclo[3.2.1]octan-3-yl)oxy)-2-(2-(difluoromethoxy)-5-fluorophenyl)ethyl)-5-methyl-6-(oxazol-2-yl)-2,4-dioxo-1,4-dihydrothieno[2,3-d]pyrimidin-3(2H)-yl)-N-((1-methylcyclopropyl)sulfonyl)propanamide]", "values": [
      {"measurement": "EC50", "setting": "Homo sapiens", "result": 2000, "unit": "nM"}
    ]},
    {"compound": "COc1ccccc1[C@H](Cn1c(=O)n([C@@H](C)C(=O)NS(=O)(=O)C2(C)CC2)c(=O)c2c(C)c(-c3ncco3)sc21)O[C@@H]1C[C@H]2CC[C@@H](C1)O2", "note": "[Example 16, (S)-2-(1-((R)-2-(((1R,3s,5S)-8-oxabicyclo[3.2.1]octan-3-yl)oxy)-2-(2-methoxyphenyl)ethyl)-5-methyl-6-(oxazol-2-yl)-2,4-dioxo-1,4-dihydrothieno[2,3-d]pyrimidin-3(2H)-yl)-N-((1-methylcyclopropyl)sulfonyl)propanamide]", "values": [
      {"measurement": "EC50", "setting": "Homo sapiens", "result": 1.9, "unit": "nM"}
    ]},
    {"compound": "COc1ccccc1[C@H](Cn1c(=O)n([C@@H](C)C(=O)NS(=O)(=O)C(C)(C)C)c(=O)c2c(C)c(-c3ncco3)sc21)O[C@@H]1C[C@H]2CC[C@@H](C1)O2", "note": "[Example 17, (S)-2-(1-((R)-2-(((1R,3s,5S)-8-oxabicyclo[3.2.1]octan-3-yl)oxy)-2-(2-methoxyphenyl)ethyl)-5-methyl-6-(oxazol-2-yl)-2,4-dioxo-1,4-dihydrothieno[2,3-d]pyrimidin-3(2H)-yl)-N-(tert-butylsulfonyl)propanamide]", "values": [
      {"measurement": "EC50", "setting": "Homo sapiens", "result": 41.1, "unit": "nM"}
    ]},
    {"compound": "COc1ccccc1[C@H](Cn1c(=O)n([C@H](C)C(=O)NS(=O)(=O)C2(C)CC2)c(=O)c2c(C)c(-c3ncco3)sc21)O[C@@H]1C[C@H]2CC[C@@H](C1)O2", "note": "[Example 18, (R)-2-(1-((R)-2-(((1R,3s,5S)-8-oxabicyclo[3.2.1]octan-3-yl)oxy)-2-(2-methoxyphenyl)ethyl)-5-methyl-6-(oxazol-2-yl)-2,4-dioxo-1,4-dihydrothieno[2,3-d]pyrimidin-3(2H)-yl)-N-((1-methylcyclopropyl)sulfonyl)propanamide]", "values": [
      {"measurement": "EC50", "setting": "Homo sapiens", "result": 1, "unit": "nM"}
    ]},
    {"compound": "COc1ccccc1[C@H](Cn1c(=O)n(C(C)(C)C(=O)NS(=O)(=O)C2(C)CC2)c(=O)c2c(C)c(-n3nccn3)sc21)O[C@@H]1C[C@H]2CC[C@@H](C1)O2", "note": "[Example 19, 2-(1-((R)-2-(((1R,3s,5S)-8-oxabicyclo[3.2.1]octan-3-yl)oxy)-2-(2-methoxyphenyl)ethyl)-5-methyl-2,4-dioxo-6-(2H-1,2,3-triazol-2-yl)-1,4-dihydrothieno[2,3-d]pyrimidin-3(2H)-yl)-2-methyl-N-((1-methylcyclopropyl)sulfonyl)propanamide]", "values": [
      {"measurement": "EC50", "setting": "Homo sapiens", "result": 1, "unit": "nM"}
    ]}
  ]
}
